Test results published in patent US7232852B2, “Photopolymerizable compositions that include alicyclic/aromatic dioxiranes and novel dioxiranyl tetraoxaspiro [5.5] undecanes” (Curators of the University of Missouri, priority 2002, dated 2007).

assay: Photoinitiated solution homopolymerization of BMOCHM-TOSU (FTIR, gel point); assay type: physicochemical; conditions: post irradiation, 20 wt % in methylene chloride
Procedure: The effect of irradiation time on the photoinitated homopolymerization of BMOCHM-TOSU monomer (20 wt % in methylene chloride) was evaluated by gel point determination and by FTIR spectroscopy. Selected IR absorption bands in the reaction mixture characteristic of hydroxyl, carbonyl and oxirane groups were monitored as a function of irradiation time. […] These observations indicate the possibility of homopolymer formation. The mixture gelled 1.5 min post irradiation.

SMILES	gel point (mixture gelled) [min]
CC1CC2OC2CC1CC1COC2(OC1)OCC(CC1CC3OC3CC1C)CO2 (stereo not shown) [BMOCHM, 3,9-bis[(4-methyl-7-oxabicyclo[4.1.0]hept-3-yl)methyl]-1,5,7,11-tetraoxaspiro[5,5]undecane]	1.5

assay: Solubility of TOSUs in oxirane coreactant systems; assay type: physicochemical; conditions: 25° C.

SMILES	Solubility in oxirane base UVR 6105	Solubility in oxirane base UVR 6105/PTHF (80/20) [wt %]	Solubility in oxirane base BOCPE [wt %]	Solubility in oxirane base BDDGE/PTHF (80/20) [wt %]
CCC1(CC)COC2(COC3(CCC4OC4C3)OC2)OC1 (stereo not shown) [DEODSH, 5,5-diethyl-19-oxdispiro[1,3-dioxane-2,5′-1,3-dioxane-2′,3″-bicyclo[4.1.0]heptane]]	–	40	>10	–
C1CC2(COC3(OC2)OCC2(CCC4OC4C2)CO3)CC2OC12 (stereo not shown) [DOTSHH, 7,26-dioxatrispiro[bicycle[4.1.0]heptane-3,5′-1,3-dioxane-2′2″-1,3-dioxane-5″,4′″-bicyclo[4.1.0]heptane]]	–	<5	10	5
C1OC2(OCC13CC1OC1C3)OCC1(CO2)CC2OC2C1 (stereo not shown) [DOTSHX, 6,24-dioxatrispiro[bicyclo[3.1.0]hexane-3.5′-1,3-dioxane-2.2′-1,3-dioxane-5″3′″-bicyclo[3.1.0]hexane]]	–	–	<5	<5

Now from value to molecule:

Solubility in oxirane base UVR 6105	Solubility in oxirane base UVR 6105/PTHF (80/20) [wt %]	Solubility in oxirane base BOCPE [wt %]	Solubility in oxirane base BDDGE/PTHF (80/20) [wt %]	SMILES
15–25 wt %	25	–	–	C1=CCC(CC2COC3(OC2)OCC(CC2CC=CCC2)CO3)CC1 (stereo not shown) [BCHEM, 3,9-Bis(cyclohex-3-enylmethyl)-1,5,7,11-tetraoxaspiro[5,5]undecane]
30 wt %	25	<10	–	CC1CC2OC2CC1CC1COC2(OC1)OCC(CC1CC3OC3CC1C)CO2 (stereo not shown) [BMOCHM, 3,9-bis[(4-methyl-7-oxabicyclo[4.1.0]hept-3-yl)methyl]-1,5,7,11-tetraoxaspiro[5,5]undecane]
30 wt %	25	<10	–	C1CC2OC2CC1CC1COC2(OC1)OCC(CC1CCC3OC3C1)CO2 (stereo not shown) [BOCHM, 3,9-bis[(7-oxabicyclo[4.1.0]hept-3-yl)methyl]-1,5,7,11-tetraoxaspiro[5.5]undecane]
